Laboratory results taken from US6908935B2, “Calcium receptor modulating agents” (Amgen Inc., priority 2002, dated 2005).

Molecular target: T1, human parathyroid cell Ca^2+ receptor (hPCaR) (Homo sapiens, UniProt P41180)
T1 construct: expressed in transfected cells
T1 sequence (P41180 20-1078): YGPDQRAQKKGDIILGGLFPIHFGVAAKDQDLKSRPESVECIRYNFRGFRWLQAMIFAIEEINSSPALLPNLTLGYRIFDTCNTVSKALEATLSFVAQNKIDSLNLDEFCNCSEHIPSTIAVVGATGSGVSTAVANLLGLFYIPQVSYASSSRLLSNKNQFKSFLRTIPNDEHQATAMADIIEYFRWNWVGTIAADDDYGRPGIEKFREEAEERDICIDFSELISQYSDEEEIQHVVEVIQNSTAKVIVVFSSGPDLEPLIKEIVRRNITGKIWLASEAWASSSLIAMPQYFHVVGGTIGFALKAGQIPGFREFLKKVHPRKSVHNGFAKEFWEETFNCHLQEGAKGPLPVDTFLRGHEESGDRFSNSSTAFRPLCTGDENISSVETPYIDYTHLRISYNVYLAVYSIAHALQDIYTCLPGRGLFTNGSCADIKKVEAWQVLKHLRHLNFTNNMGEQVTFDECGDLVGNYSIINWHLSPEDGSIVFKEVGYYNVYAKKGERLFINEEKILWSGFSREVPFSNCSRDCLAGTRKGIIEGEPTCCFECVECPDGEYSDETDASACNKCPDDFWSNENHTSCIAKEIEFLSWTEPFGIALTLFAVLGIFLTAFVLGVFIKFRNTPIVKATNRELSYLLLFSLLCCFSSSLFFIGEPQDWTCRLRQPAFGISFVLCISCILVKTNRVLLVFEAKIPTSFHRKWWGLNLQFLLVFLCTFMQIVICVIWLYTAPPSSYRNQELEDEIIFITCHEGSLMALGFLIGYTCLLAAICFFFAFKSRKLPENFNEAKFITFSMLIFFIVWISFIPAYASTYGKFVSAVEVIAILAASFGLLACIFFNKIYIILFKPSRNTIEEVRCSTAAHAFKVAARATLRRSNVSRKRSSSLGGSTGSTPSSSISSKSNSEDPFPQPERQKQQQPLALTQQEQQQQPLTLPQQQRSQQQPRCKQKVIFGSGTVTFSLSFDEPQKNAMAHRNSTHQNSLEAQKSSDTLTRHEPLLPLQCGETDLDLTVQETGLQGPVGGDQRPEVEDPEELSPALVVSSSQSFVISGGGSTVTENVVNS
Test: [Ca2+]i measurement with fluo-3 in HEK 293 4.0-7 cells stably transfected with hPCaR
Format: cell-based
Settings: fluo-3 fluorescence (485/530 nm), effect on [Ca^2+]i
Outline: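 HEK 293 cells stably expressing human parathyroid Ca2+ receptor (clone 4.0-7), loaded with 2 μM fluo-3 AM for 30 min at 37 °C in parathyroid cell buffer (pH 7.45) with 1 mM CaCl2 and 0.5% BSA. After compound addition, intracellular Ca2+ followed by fluorescence at 485 nm excitation/530 nm emission.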

EC50, ≤ 10 µM:
C[C@@H](NCc1ccc(Cl)c(-c2ccc(OC(F)(F)F)cc2)c1)c1cccc2ccccc12 [(1R)-N-((6-chloro-4′-((trifluoromethyl)oxy)-1,1′-biphenyl-3-yl)methyl)-1-(1-naphthalenyl)ethanamine]
COc1cccc([C@@H](C)NCc2ccc(Cl)c(-c3ccc(OC(F)(F)F)cc3)c2)c1 [(1R)-N-((6-chloro-4′-((trifluoromethyl)oxy)-1,1′-biphenyl-3-yl)methyl)-1-(3-(methyloxy)phenyl)ethanamine]
C[C@@H](NCc1ccc(Cl)c(-c2ccc(OC(F)(F)F)cc2)c1)c1ccccc1 [(1R)-N-((6-chloro-4′-((trifluoromethyl)oxy)-1,1′-biphenyl-3-yl)methyl)-1-phenylethanamine]
C[C@@H](NCc1ccc(Cl)c(-c2ccc(C(F)(F)F)cc2)c1)c1cccc2ccccc12 [(1R)-N-((6-chloro-4′-(trifluoromethyl)-1,1′-biphenyl-3-yl)methyl)-1-(1-naphthalenyl)ethanamine]
C[C@@H](NCc1ccc(Cl)c(-c2ccc(C(F)(F)F)cc2)c1)c1ccccc1 [(1R)-N-((6-chloro-4′-(trifluoromethyl)-1,1′-biphenyl-3-yl)methyl)-1-phenylethanamine]
COc1ccc(-c2cc(CN[C@H](C)c3cccc(OC)c3)ccc2F)cc1 [(1R)-N-((6-fluoro-4′-(methyloxy)-1,1′-biphenyl-3-yl)methyl)-1-(3-(methyloxy)phenyl)ethanamine]
COc1ccc(-c2cc(CN[C@H](C)c3ccc(OC)cc3)ccc2F)cc1 [(1R)-N-((6-fluoro-4′-(methyloxy)-1,1′-biphenyl-3-yl)methyl)-1-(4-(methyloxy)phenyl)ethanamine]
COc1ccc(-c2cc(CN[C@H](C)c3ccc(C)cc3)ccc2F)cc1 [(1R)-N-((6-fluoro-4′-(methyloxy)-1,1′-biphenyl-3-yl)methyl)-1-(4-methylphenyl)ethanamine]
C[C@@H](NCc1ccc(F)c(-c2ccc(C(F)(F)F)cc2)c1)c1ccccc1 [(1R)-N-((6-fluoro-4′-(trifluoromethyl)-1,1′-biphenyl-3-yl)methyl)-1-phenylethanamine]
C[C@@H](NCc1ccc(I)c(-c2ccc(C(F)(F)F)cc2)c1)c1cccc2ccccc12 [(1R)-N-((6-iodo-4′-(trifluoromethyl)-1,1′-biphenyl-3-yl)methyl)-1-(1-naphthalenyl)ethanamine]
COc1cccc([C@@H](C)NCc2ccc(I)c(-c3ccc(C(F)(F)F)cc3)c2)c1 [(1R)-N-((6-iodo-4′-(trifluoromethyl)-1,1′-biphenyl-3-yl)methyl)-1-(3-(methyloxy)phenyl)ethanamine]
C[C@@H](NCc1ccc(I)c(-c2ccc(C(F)(F)F)cc2)c1)c1ccccc1 [(1R)-N-((6-iodo-4′-(trifluoromethyl)-1,1′-biphenyl-3-yl)methyl)-1-phenylethanamine]
COc1ccc(CN[C@@H](C)c2ccccc2)cc1-c1ccc(C(F)(F)F)cc1 [(1S)-N-((6-(methyloxy)-4′-(trifluoromethyl)-1,1′-biphenyl-3-yl)methyl)-1-phenylethanamine]
C[C@@H](NCc1cccc(-c2nccs2)c1)c1cccc2ccccc12 [Example 217, (1R)-1-(1-naphthalenyl)-N-((3-(1,3-thiazol-2-yl)phenyl)methyl)ethanamine]
C[C@@H](NCc1cccc(-c2nccs2)c1)c1ccccc1 [Example 218, (1R)-1-phenyl-N-((3-(1,3-thiazol-2-yl)phenyl)methyl)ethanamine]
COc1cccc([C@@H](C)NCc2cccc(-c3ccoc3)c2)c1 [Example 222, (1R)-N-((3-(3-furanyl)phenyl)methyl)-1-(3-(methyloxy)phenyl)ethanamine]
